Experimental data as given in PMC6934184, “Selective DNA-PKcs inhibition extends the therapeutic index of localized radiotherapy and chemotherapy” (The Journal of Clinical Investigation, 2019).

Molecular target: T1, YES1 (Homo sapiens, UniProt P07947)
T1 construct: purchased Thermo Fisher Scientific (Life Technologies) SelectScreen
Experiment: SelectScreen Z'LYTE
Format: biochemical
How it was run: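 Compound tested in SelectScreen activity assays, Z'LYTE for CSF1R, CDK1/cyclin B and MAP2K6 and Adapta for CAMK1. ATP for CAMK1 was listed as 10, and Km app was used for CSF1R. Results are expressed in percent.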

T1 sequence (P07947 whole entry): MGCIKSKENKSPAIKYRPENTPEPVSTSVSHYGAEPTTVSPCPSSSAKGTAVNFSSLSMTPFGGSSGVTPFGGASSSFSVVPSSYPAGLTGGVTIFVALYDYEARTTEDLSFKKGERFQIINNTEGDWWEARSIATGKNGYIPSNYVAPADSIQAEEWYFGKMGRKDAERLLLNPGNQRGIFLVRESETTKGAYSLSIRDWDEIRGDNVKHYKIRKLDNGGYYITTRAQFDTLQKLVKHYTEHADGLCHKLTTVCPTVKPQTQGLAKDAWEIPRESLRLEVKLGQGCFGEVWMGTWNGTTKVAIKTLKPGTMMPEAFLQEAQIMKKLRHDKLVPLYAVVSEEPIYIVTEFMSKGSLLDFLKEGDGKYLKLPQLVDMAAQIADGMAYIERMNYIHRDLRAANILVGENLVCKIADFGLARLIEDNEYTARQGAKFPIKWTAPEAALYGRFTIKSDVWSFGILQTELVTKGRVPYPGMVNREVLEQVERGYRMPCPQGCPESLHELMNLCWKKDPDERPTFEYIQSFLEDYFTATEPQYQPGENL

Compound `CN(C(=O)CN1CCOCC1)c1ccc2sc3c(-c4cccc5c(=O)cc(N6CC7CCC(C6)O7)oc45)cccc3c2c1` [NU5455] has an inhibition at 1 µM of 7.4%.
